Data on 19 compounds can be found in publication PMC7129073 (Clinical Microbiology and Infection, 2015).

Test [1] has as its system Acinetobacter. Nature of the test: Disk diffusion. Format: cell-based. As to conditions: 37 isolates selected as resistant to beta-lactams. (Agar diffusion results depend on both activity and mobility in agar.)
Test [2] deals with K. pneumoniae. As to the kind of experiment: E-test susceptibility. Format: cell-based, Klebsiella pneumoniae.
Test [3] has as its system Enterobacter spp. Nature of the test: E-test susceptibility. The format is cell-based.
Test [4] relates to K. pneumoniae. As to the kind of experiment: MIC. Format: cell-based, Klebsiella pneumoniae. To be noted: for MIC: Klebsiella pneumoniae.
Test [5] has as its system H.influenzae. As to the kind of experiment: Broth microdilution. The format is cell-based, Haemophilus influenzae. As to conditions: for %Sus: NCCLS.
Test [6] relates to S. pneumoniae. Nature of the test: Broth microdilution. Format: cell-based, Streptococcus pneumoniae. For orientation: Dilution methods test growth across graded concentrations, often in twofold steps.
For test [7], the system named is PRSP. Nature of the test: Broth microdilution. The format is cell-based, Streptococcus pneumoniae.
The subject of test [8] is ERSP. As to the kind of experiment: Broth microdilution. The format is cell-based, Streptococcus pneumoniae.
For test [9], the system named is S. pneumoniae. Nature of the test: MIC of invasive strains, Saint George Hospital 2001–2004. Format: cell-based, Streptococcus pneumoniae.
Test [10] relates to E. coli. Nature of the test: E-test susceptibility. The format is cell-based, Escherichia coli.
Test [11] deals with Streptococcus agalactiae strains P0162 and P0425. As to the kind of experiment: Microdilution. The format is cell-based.
Test [12] concerns inducible Enterobacteriaceae. As to the kind of experiment: SMART 2003, intraabdominal isolates. The format is cell-based.
Test [13] concerns Enterobacteriaceae. As to the kind of experiment: SMART 2003 Europe, microdilution. The format is cell-based. To be noted: 1948 isolates.
The subject of test [14] is E. coli. Nature of the test: SMART 2003 Europe, microdilution. Format: cell-based, Escherichia coli. As to conditions: 1106 isolates.
Test [15] has as its system Klebsiella. As to the kind of experiment: SMART 2003 Europe, microdilution. Format: cell-based, Klebsiella spp. To be noted: 341 isolates.
In test [16] the test system is K. oxytoca. Nature of the test: E-test susceptibility. Format: cell-based, Klebsiella oxytoca.
Test [17] concerns S. pneumoniae (SPN). Nature of the test: NCCLS broth microdilution, fluoroquinolones 1999–2004. As to conditions: for MIC50 / MIC90: Streptococcus pneumoniae. Format: cell-based, Streptococcus pneumoniae.
The subject of test [18] is Shigella spp. Nature of the test: Disk diffusion, stool isolates Tehran. Format: cell-based. As to conditions: 96 isolates.
The test system of test [19] is MSSA. Nature of the test: Agar dilution MIC. Format: cell-based, Staphylococcus aureus.
Test [20] deals with nontyphoidal Salmonella. As to the kind of experiment: Agar dilution, isolates from chickens 1998–2004. Format: cell-based, Salmonella spp.
For test [21], the system named is F. necrophorum. Nature of the test: E-test, 13 clinical isolates. The format is cell-based, Fusobacterium necrophorum.
Test [22] relates to Escherichia coli. Nature of the test: Vitek 2 susceptibility, urine isolates of children. Format: cell-based.
[23] abbreviates: NCCLS breakpoints (Amox/Clav 2/1 mcg/mL).
The mark [24] stands for this setting: ICU, SRGA breakpoints, tigecycline tentative S ≤2 μg/ml.
The mark [25] stands for this setting: PK breakpoint of 4/2 mcg/mL, Augmentin ES-600.

In brackets after ≈: the same amount, converted by molar mass. Like-named read-outs stand apart in the source and are kept apart here.

With `CO[C@@]1(NC(=O)C(C(=O)O)c2ccc(O)cc2)C(=O)N2C(C(=O)O)=C(CSc3nnnn3C)CO[C@@H]21` (stereo partly drawn) [moxalactam], in [1], the resistant isolates was 75.7%.
On to `CN(C)c1cc(NC(=O)CNC(C)(C)C)c(O)c2c1C[C@H]1C[C@H]3[C@H](N(C)C)C(O)=C(C(N)=O)C(=O)[C@@]3(O)C(O)=C1C2=O` [Tigecycline], for which the Susceptible isolates was 93% in test [2] (ICU), 98% in test [2] (non ICU), 91% in [3] (ICU) and 96% in test [3] (non ICU).
In test [1], `CC1(C)S[C@@H]2[C@H](NC(=O)C(C(=O)O)c3ccccc3)C(=O)N2[C@H]1C(=O)O` (stereo partly drawn) [carbenicillin] had a resistant isolates of 100.0%.
For the compound colistin, the susceptibility category result in test [4] (BSAC) is “susceptible”.
Regarding Trimethoprim/sulfamethoxazole [TMP/SMX], the MIC90 is more than 4 mg/L in [5], 8 mg/L in test [6], more than 8 mg/L in test [7] and 8 mg/L in [8]. Also, the “%Sus” value in test [5] was determined as 76.5%; in test [6] (setting [23]), 50.2%; in test [7] (setting [23]) it was 13.8%; in test [8] (setting [23]), 24.5%.
Regarding `CO/N=C(\C(=O)N[C@@H]1C(=O)N2C(C(=O)O)=C(COC(N)=O)CS[C@H]12)c1ccco1` [Cefuroxime, cefuroxim], the MIC90 stood at 2 mg/L (≈ 4.71 µM) in [5], 8 mg/L (≈ 18.9 µM) in test [6], 8 mg/L (≈ 18.9 µM) in test [7] and 8 mg/L (≈ 18.9 µM) in [8]. The “%Sus” value in test [5] came to 96.7%; in test [6] (setting [23]) it was 65.2%; in test [7] (setting [23]), 0.7%; in test [8] (setting [23]) it was 26.0%. The “% S” value in test [9] is given as 95.2%. Further, the “%R” value in [9] worked out at 4.8%. For the same compound, the values for the Susceptible isolates in test [10] (setting [24]) and in test [10] (non ICU) were 92% and 94%, respectively.
For the compound `NC1CCN(c2c(F)cc3c(=O)c(C(=O)O)cn(C4CC4)c3c2Cl)C1` (stereo not drawn) [clinafloxacin], the MIC in test [11] (strain P0162 (ParC Ser79Phe, GyrA Glu85Ala)) was 0.25 mg/L (≈ 0.683 µM); in test [11] (strain P0425 (ParC Ser79Phe, GyrA Glu85Lys)), 0.75 mg/L (≈ 2.05 µM).
Compound `CO/N=C(\C(=O)N[C@@H]1C(=O)N2C(C(=O)[O-])=C(C[N+]3(C)CCCC3)CS[C@H]12)c1csc(N)n1` [cefepime] displayed an MIC in test [4] of more than 64 mg/L. The resistant isolates in [1] is 21.6%. Also, the “% susceptible” value in test [12] (A/P (N = 200)) is recorded as 89%; in [12] (EU (N = 354)) it was 97%; in test [12] (LA (N=113)), 88%; in test [12] (NA (N = 163)), 92%. The per cent susceptible turned out to be 96% in [13], 96% in test [14] and 94% in test [15]. The Susceptible isolates in test [10] (setting [24]) was 98%; in [10] (non ICU) it was 99%; in test [2] (ICU), 98%; in test [2] (non ICU) it was 100%; in test [16] (ICU), 100%; in test [16] (non ICU), 96%. For the same compound, the results for the Susceptible isolates in [3] (ICU) and in [3] (non ICU) were 84% and 92%, respectively.
In test [17], `CO/N=C1\CN(c2nc3c(cc2F)c(=O)c(C(=O)O)cn3C2CC2)CC1CN` (stereo not drawn) [GEMI, gemifloxacin] came in with an MIC range of 0.25 to 2 mg/L. Moreover, the “% I” value in test [17] (1999 (554)) was 0.4%; in test [17] (2000 (508)), 0.2%; in [17] (2001 (1.435)), 0.3%; in [17] (2002 (1.502)), 0.3%; in test [17] (2003 (890)), 0.0%; in test [17] (2004 (1.003)), 0.7%. The “% I” value in test [17] (All years (5.892)) was 0.3%. The “% S” value is reported as 99.6% in test [17] (1999 (554)); 99.6% in test [17] (2000 (508)); 99.4% in test [17] (2001 (1.435)); 99.5% in [17] (2002 (1.502)); 100.0% in [17] (2003 (890)); 99.2% in test [17] (2004 (1.003)). In [17] (All years (5.892)), the “% S” value came to 99.5%. For the same compound, the “%R” value in [17] (1999 (554)) is 0.0%; in [17] (2000 (508)), 0.2%; in test [17] (2001 (1.435)) it was 0.3%; in test [17] (2002 (1.502)), 0.2%; in [17] (2003 (890)), 0.0%; in [17] (2004 (1.003)), 0.1%. For the same compound, the “%R” value in [17] (All years (5.892)) is listed as 0.2%. The MIC50 in test [17] was 0.5 mg/L (≈ 1.28 µM); in [17] (1999 (554)), not above 0.03 mg/L; in [17] (2000 (508)), not above 0.03 mg/L; in [17] (2001 (1.435)) it was 0.016 mg/L (≈ 0.0411 µM); in test [17] (2002 (1.502)), 0.016 mg/L (≈ 0.0411 µM); in test [17] (2003 (890)), 0.016 mg/L (≈ 0.0411 µM). For the same compound, the MIC50 in test [17] (2004 (1.003)) and in [17] (All years (5.892)) was 0.016 mg/L (≈ 0.0411 µM) in each case. In addition, the MIC90 in [17] was 1 mg/L (≈ 2.57 µM); in test [17] (1999 (554)) it was not above 0.03 mg/L; in [17] (2000 (508)), not above 0.03 mg/L; in [17] (2001 (1.435)), 0.03 mg/L (≈ 0.077 µM); in test [17] (2002 (1.502)), 0.03 mg/L (≈ 0.077 µM); in [17] (2003 (890)) it was 0.03 mg/L (≈ 0.077 µM). Moreover, the MIC90 in test [17] (2004 (1.003)) is 0.03 mg/L (≈ 0.077 µM); in [17] (All years (5.892)), 0.03 mg/L (≈ 0.077 µM); in [17] (read-out: MIC90 during the six years, 1999–2004) it was 0.03 mg/L (≈ 0.077 µM).
In the case of `CO/N=C(\C(=O)N[C@@H]1C(=O)N2C(C(=O)O)=CCS[C@H]12)c1csc(N)n1` [ceftizoxime], the sensitive in test [18] was determined as 85%. In test [1], this compound had a resistant isolates of 86.5%.
On to `C[C@@H](O)[C@H]1C(=O)N2C(C(=O)O)=C(S[C@@H]3CN[C@H](C(=O)Nc4cccc(C(=O)O)c4)C3)[C@H](C)[C@H]12` [ertapenem], for which the MIC in [4] was more than 16 mg/L. Besides, the “% susceptible” value in [12] (A/P (N = 200)) was found to be 98%; in [12] (EU (N = 354)), 98%; in test [12] (LA (N=113)) it was 91%; in [12] (NA (N = 163)), 94%. In addition, the per cent susceptible in [13] is on record as 99%; in [14] it was more than 99%; in test [15] it was 99%.
Turning to `CC1(C)S[C@@H]2[C@H](NC(=O)[C@H](NC(=O)N3CCN(S(C)(=O)=O)C3=O)c3ccccc3)C(=O)N2[C@H]1C(=O)O` [mezlocillin], the resistant isolates in test [1] amounted to 100.0%.
As to `Cc1onc(-c2ccccc2Cl)c1C(=O)N[C@@H]1C(=O)N2[C@@H]1SC(C)(C)[C@@H]2C(=O)O` [Cloxacilin, cloxacillin], in [19] (Staphylococcus aureus, MSSA), the MIC50 was less than 0.25 mg/L and the MIC90 was less than 0.25 mg/L. In [19] (n = 200), this compound yielded an MIC range of 125 to 16000 mg/L.
`CCn1cc(C(=O)O)c(=O)c2cc(F)c(N3CCNC(C)C3)c(F)c21` (stereo not drawn) [lomefloxacin] had a resistant isolates in [1] of 100.0%.
trimethoprim/sulfadiazine [TS]: the resistance turned out to be 18% in [20] (Belgian collection (caecal samples; Belgium, France, Netherlands)) and 12% in test [20] (Germany (carcass meat)).
`C[C@H]1c2cccc(O)c2C(=O)C2=C(O)[C@]3(O)C(=O)C(C(N)=O)=C(O)[C@@H](N(C)C)[C@@H]3[C@@H](O)[C@@H]21` [doxycycline]: the resistant isolates in test [1] worked out at 54.1%. The compound also showed an MIC range in [21] of 0.016 to 0.75 mg/L. In test [21] (Fusobacterium necrophorum), this compound had an MIC50 of 0.064 mg/L (≈ 0.144 µM) and an MIC90 of 0.19 mg/L (≈ 0.428 µM).
As for `CCN1CCN(C(=O)N[C@@H](C(=O)N[C@@H]2C(=O)N3C(C(=O)O)=C(CSc4nnnn4C)CS[C@H]23)c2ccc(O)cc2)C(=O)C1=O` [cefoperazone], the resistant isolates in test [1] was found to be 100.0%.
Consider `CC(=O)OCC1=C(C(=O)O)N2C(=O)[C@@H](NC(=O)Cc3cccs3)[C@H]2SC1` [cefalothin], for which the susceptibility rate in test [22] (paediatric surgical unit (PSU)) is 19%; in test [22] (paediatric units (PU)) it was 66%.
With “Amoxicillin / Clavulanic acid [Amox/Clav]”, the MIC90 was 2 mg/L in test [5], 2 mg/L in test [6], 8 mg/L in test [7] and 8 mg/L in test [8]. Besides, the “%Sus” value in test [5] is 99.2%; in test [6] (setting [23]) it was 92.3%; in test [6] (setting [25]), 96.5%; in [7] (setting [23]) it was 67.1%; in [7] (setting [25]), 83.5%; in test [8] (setting [23]), 81.5%. For the same compound, the “%Sus” value in [8] (setting [25]) came out at 88.6%.

In general, MIC refers to the least concentration at which growth counts as inhibited. High values mean a less susceptible organism, low ones a more susceptible organism. One may read the MIC50 as an inhibitory concentration at the 50% level, which refers to growth in some studies and to a panel of isolates in others. Low readings indicate higher susceptibility, high ones lower susceptibility.
